In BindingDB's records for doi:10.1002/cbic.201600573 (X-Chem Pharmaceuticals, 2017):

biological target: Tyrosine-protein kinase BTK (Homo sapiens, UniProt Q06187); test: BTK FRET Competitive Binding Assay; settings: 30 °C
Experimental: The BTK time-resolved FRET-based competitive binding assay and cell-based BTK assays have been previously described.[Xu et al., J.Pharmacol. Exp. Ther., 341:90-103] For the BTK Omnia kinetic assay used in the mechanism of action experiments, assay reagents were prepared from the Omnia Y peptide 5 kit as follows: kinase reaction buffer was diluted to 1X in dH2O. A 10X substrate (100 μm) was prepared in dH20. ATP was prepared at 1 mM (10×) in dH2O, and 2 mM (10×) DTT was prepared in dH2O. A master mix of kinase buffer (10×), peptide (10×), and DTT (10×), all at 2 μL, and dH2O (4 μL) was prepared per well. Untagged BTK enzyme was run in a final concentration of 20 nM. Compounds at varying concentrations and ATP dilutions were prepared in 1V kinase buffer. Final compound DMSO concentration was 1.25 %. In a black non-binding plate (Corning 3676), enzyme (5 μL) was added to compound/ATP mix (5 μL). The plate was incubated for 20 min at 30 °C, then master mix (10 μL) was added into each well and mixed. The plate was incubated at 30 °C, and fluorescence intensity readings at λex=360 nm, λem=485 nm was collected at predetermined intervals on the Tecan M1000.

Tyrosine-protein kinase BTK, sequence (Q06187 whole entry): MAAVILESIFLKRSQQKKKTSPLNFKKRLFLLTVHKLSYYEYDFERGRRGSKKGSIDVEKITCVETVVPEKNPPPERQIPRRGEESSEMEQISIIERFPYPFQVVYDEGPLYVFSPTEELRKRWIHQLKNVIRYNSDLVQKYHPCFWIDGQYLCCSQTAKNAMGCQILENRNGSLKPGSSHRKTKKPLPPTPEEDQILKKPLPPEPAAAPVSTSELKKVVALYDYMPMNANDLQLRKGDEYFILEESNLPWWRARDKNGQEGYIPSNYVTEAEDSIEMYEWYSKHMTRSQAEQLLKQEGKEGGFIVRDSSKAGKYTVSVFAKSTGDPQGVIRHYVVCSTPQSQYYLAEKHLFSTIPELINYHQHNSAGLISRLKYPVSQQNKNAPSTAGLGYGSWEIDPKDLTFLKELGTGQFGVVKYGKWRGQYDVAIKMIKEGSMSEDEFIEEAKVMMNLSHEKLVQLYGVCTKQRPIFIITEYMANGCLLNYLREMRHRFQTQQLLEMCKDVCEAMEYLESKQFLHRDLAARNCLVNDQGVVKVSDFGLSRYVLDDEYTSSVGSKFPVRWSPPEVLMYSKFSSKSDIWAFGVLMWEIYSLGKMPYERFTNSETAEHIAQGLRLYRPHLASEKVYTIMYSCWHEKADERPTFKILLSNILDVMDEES

Structure (SMILES)	IC50 [nM]
CNC(=O)C(Cc1c[nH]c2ncccc12)NC(=O)c1n[nH]c2cccc(CNc3ccc(O)cc3Cl)c12 (stereo not drawn) [BTK inhibitor, 1]	2500
CNC(=O)Cc1cccc(NC(=O)c2n[nH]cc2CNc2ccccc2[C@H](O)c2ccccc2)c1 [BTK inhibitor, 2]	210
CNC(=O)[C@H]1Cc2c([nH]c3ccccc23)CN1C(=O)c1occc1CNc1ccc2nccnc2c1 [BTK inhibitor, 3]	0.55
